Experimental findings from patent US20230107642A1 (Erasca, Inc., priority 2020, published 2023) are described below.

In the assay the target is T1, Cys12 of the KRAS 4B G12C protein (Homo sapiens, UniProt P01116, G12C).
T1 construct: This protein contained 188 amino acids in total, including an N-terminal 6-Histidine tag; made in house; host or cells: E. coli BL21
In words: In vitro covalent adduct formation (CAF) assay, LC-MS intact mass. The format is binding. The settings on record: 10 μM compound, after 1 hour. The gist of the method: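 GDP-loaded (>95%) His-TEV-tagged KRAS 4B G12C (residues 1–169), 5 μM in TBS pH 7.4, incubated with 10 μM compound (4% DMSO) at 22° C for one hour. Intact-protein LC-MS gave free:adduct ratios, reported as percent protein modified; duplicate runs.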

Consider `C=CC(=O)N1[C@H](C)CN(c2nc(=O)n3c4c(c(-c5cc(C)c(F)cn5)c(C(F)(F)F)cc24)SC[C@@H](OC)C3)C[C@@H]1C` [Example 1209, (S)-8-((3S,5R)-4-acryloyl-3,5-dimethylpiperazin-1-yl)-11-(5-fluoro-4-methylpyridin-2-yl)-3-methoxy-10-(trifluoromethyl)-3,4-dihydro-2H,6H-[1,4]thiazepino[2,3,4-ij]quinazolin-6-one], for which the “CAF (% after 1 hour)” value was 96%. Turning to `C=CC(=O)N1C2COCC1CN(c1nc(=O)n3c4c(c(-c5cc(Cl)c(F)cc5F)c(C(F)(F)F)cc14)SC[C@@H](OC)C3)C2` [Example 1210, (3S)-8-(9-acryloyl-3-oxa-7,9-diazabicyclo[3.3.1]nonan-7-yl)-11-(5-chloro-2,4-difluorophenyl)-3-methoxy-10-(trifluoromethyl)-3,4-dihydro-2H,6H-[1,4]thiazepino[2,3,4-ij]quinazolin-6-one], the “CAF (% after 1 hour)” value came to 94%.

In the case of `C=CC(=O)N1CCN(c2nc(=O)n3c4c(c(-c5cc(Cl)c(F)cc5F)c(C(F)(F)F)cc24)SC[C@@H](OC)C3)[C@@H]2CS(=O)(=O)C[C@@H]21` [Example 1211, (3S)-8-((4aR,7aS)-4-acryloyl-6,6-dioxidohexahydrothieno[3,4-b]pyrazin-1(2H)-yl)-11-(5-chloro-2,4-difluorophenyl)-3-methoxy-10-(trifluoromethyl)-3,4-dihydro-2H,6H-[1,4]thiazepino[2,3,4-ij]quinazolin-6-one], the “CAF (% after 1 hour)” value worked out at 97%.

As to `C=CC(=O)N1CCN(c2nc(=O)n3c4c(c(-c5cc(Cl)c(F)cc5F)c(C(F)(F)F)cc24)SC[C@@H](OC)C3)[C@@H]2CN(S(C)(=O)=O)C[C@@H]21` [Example 1212, (3S)-8-((4aS,7aR)-4-acryloyl-6-(methylsulfonyl)octahydro-1H-pyrrolo[3,4-b]pyrazin-1-yl)-11-(5-chloro-2,4-difluorophenyl)-3-methoxy-10-(trifluoromethyl)-3,4-dihydro-2H,6H-[1,4]thiazepino[2,3,4-ij]quinazolin-6-one], the “CAF (% after 1 hour)” value was determined as 50%.

As for `C=CC(=O)N1CCN(c2nc(=O)n3c4c(c(-c5cc(Cl)c(F)cc5F)c(C(F)(F)F)cc24)SC[C@@H](OC)C3)[C@@H]2COC[C@@H]21` [Example 1213, (3S)-8-((4aR,7aS)-4-acryloylhexahydrofuro[3,4-b]pyrazin-1(2H)-yl)-11-(5-chloro-2,4-difluorophenyl)-3-methoxy-10-(trifluoromethyl)-3,4-dihydro-2H,6H-[1,4]thiazepino[2,3,4-ij]quinazolin-6-one], the “CAF (% after 1 hour)” value amounted to 59%. For the molecule `C=CC(=O)N1CCN(c2nc(=O)n3c4c(c(-c5cc(Cl)c(F)cc5F)c(C(F)(F)F)cc24)SC[C@@H](OC)C3)[C@@H]2CSC[C@@H]21` [Example 1214, (3S)-8-((4aR,7aS)-4-acryloylhexahydrothieno[3,4-b]pyrazin-1(2H)-yl)-11-(5-chloro-2,4-difluorophenyl)-3-methoxy-10-(trifluoromethyl)-3,4-dihydro-2H,6H-[1,4]thiazepino[2,3,4-ij]quinazolin-6-one], the “CAF (% after 1 hour)” value was found to be 49%. The figure for `C=CC(=O)N1[C@H](C)CN(c2nc(=O)n3c4c(c(-c5cc(C(F)(F)F)ns5)c(C(F)(F)F)cc24)SC[C@@H](OC)C3)C[C@@H]1C` [Example 1215, (S)-8-((3S,5R)-4-acryloyl-3,5-dimethylpiperazin-1-yl)-3-methoxy-10-(trifluoromethyl)-11-(3-(trifluoromethyl)isothiazol-5-yl)-3,4-dihydro-2H,6H-[1,4]thiazepino[2,3,4-ij]quinazolin-6-one] is 95%; for `C=CC(=O)N1[C@H](C)CN(c2nc(=O)n3c4c(c(-c5ncc(C(F)(F)F)s5)c(C(F)(F)F)cc24)SC[C@@H](OC)C3)C[C@@H]1C` [Example 1216, (S)-8-((3S,5R)-4-acryloyl-3,5-dimethylpiperazin-1-yl)-3-methoxy-10-(trifluoromethyl)-11-(5-(trifluoromethyl)thiazol-2-yl)-3,4-dihydro-2H,6H-[1,4]thiazepino[2,3,4-ij]quinazolin-6-one] it is 94%; for `C=CC(=O)N1[C@H](C)CN(c2nc(=O)n3c4c(c(-c5ccc(F)cc5)c(C(F)(F)F)cc24)SC[C@@H](OCF)C3)C[C@@H]1C` [Example 1217, (S)-8-((3S,5R)-4-acryloyl-3,5-dimethylpiperazin-1-yl)-3-(fluoromethoxy)-11-(4-fluorophenyl)-10-(trifluoromethyl)-3,4-dihydro-2H,6H-[1,4]thiazepino[2,3,4-ij]quinazolin-6-one] it is 95%. In the case of `C=C(F)C(=O)N1[C@H](C)CN(c2nc(=O)n3c4c(c(-c5cc(Cl)c(F)cc5F)c(C(F)(F)F)cc24)SC[C@@H](OC)C3)C[C@@H]1C` [Example 1218, (3S)-11-(5-Chloro-2,4-difluorophenyl)-8-((3S,5R)-4-(2-fluoroacryloyl)-3,5-dimethylpiperazin-1-yl)-3-methoxy-10-(trifluoromethyl)-3,4-dihydro-2H,6H-[1,4]thiazepino[2,3,4-ij]quinazolin-6-one], the “CAF (% after 1 hour)” value is on record as 66%.

On to `C=C(F)C(=O)N1CCN(c2nc(=O)n3c4c(c(-c5cc(Cl)c(F)cc5F)c(C(F)(F)F)cc24)SC[C@@H](OC)C3)CC1` [Example 1219, (3S)-11-(5-Chloro-2,4-difluorophenyl)-8-(4-(2-fluoroacryloyl)piperazin-1-yl)-3-methoxy-10-(trifluoromethyl)-3,4-dihydro-2H,6H-[1,4]thiazepino[2,3,4-ij]quinazolin-6-one], for which the “CAF (% after 1 hour)” value stood at 64%. The figure for `C=C(F)C(=O)N1[C@H](C)CN(c2nc(=O)n3c4c(c(-c5ccc(F)cc5F)c(C(F)(F)F)cc24)SC[C@@H](OC)C3)C[C@@H]1C` [Example 1220, (3S)-11-(2,4-Difluorophenyl)-8-((3S,5R)-4-(2-fluoroacryloyl)-3,5-dimethylpiperazin-1-yl)-3-methoxy-10-(trifluoromethyl)-3,4-dihydro-2H,6H-[1,4]thiazepino[2,3,4-ij]quinazolin-6-one] is 67%; for `C=C(F)C(=O)N1CCN(c2nc(=O)n3c4c(c(-c5ccc(F)cc5F)c(C(F)(F)F)cc24)SC[C@@H](OC)C3)CC1` [Example 1221, (3S)-11-(2,4-Difluorophenyl)-8-(4-(2-fluoroacryloyl)piperazin-1-yl)-3-methoxy-10-(trifluoromethyl)-3,4-dihydro-2H,6H-[1,4]thiazepino[2,3,4-ij]quinazolin-6-one] it is 61%. `C=C(F)C(=O)N1[C@H](C)CN(c2nc(=O)n3c4c(c(-c5ccc(F)cc5)c(C(F)(F)F)cc24)SC[C@@H](OC)C3)C[C@@H]1C` [Example 1222, (S)-8-((3S,5R)-4-(2-Fluoroacryloyl)-3,5-dimethylpiperazin-1-yl)-11-(4-fluorophenyl)-3-methoxy-10-(trifluoromethyl)-3,4-dihydro-2H,6H-[1,4]thiazepino[2,3,4-ij]quinazolin-6-one]: the “CAF (% after 1 hour)” value amounted to 59%. For the molecule `C=C(F)C(=O)N1CCN(c2nc(=O)n3c4c(c(-c5ccc(F)cc5)c(C(F)(F)F)cc24)SC[C@@H](OC)C3)CC1` [Example 1223, (S)-8-(4-(2-Fluoroacryloyl)piperazin-1-yl)-11-(4-fluorophenyl)-3-methoxy-10-(trifluoromethyl)-3,4-dihydro-2H,6H-[1,4]thiazepino[2,3,4-ij]quinazolin-6-one], the “CAF (% after 1 hour)” value amounted to 57%. The figure for `C=CC(=O)N1[C@H](C)CN(c2nc(=O)n3c4c(c(-c5ccc(F)cc5)c(C(F)(F)F)cc24)SC[C@@H](NS(C)(=O)=O)C3)C[C@@H]1C` [Example 1224, N—((S)-8-((3S,5R)-4-Acryloyl-3,5-dimethylpiperazin-1-yl)-11-(4-fluorophenyl)-6-oxo-10-(trifluoromethyl)-3,4-dihydro-2H,6H-[1,4]thiazepino[2,3,4-ij]quinazolin-3-yl)methanesulfonamide] is 96%; for `C=CC(=O)N1[C@H](C)CN(c2nc(=O)n3c4c(c(-c5ncc(F)cc5F)c(C(F)(F)F)cc24)SC[C@@H](OC)C3)C[C@@H]1C` [Example 1225, (3S)-8-((3S,5R)-4-Acryloyl-3,5-dimethylpiperazin-1-yl)-11-(3,5-difluoropyridin-2-yl)-3-methoxy-10-(trifluoromethyl)-3,4-dihydro-2H,6H-[1,4]thiazepino[2,3,4-ij]quinazolin-6-one] it is 95%. Take `C=CC(=O)N1[C@H](C)CN(c2nc(=O)n3c4c(c(-c5ccc(F)cc5C#N)c(C(F)(F)F)cc24)SC[C@@H](OC)C3)C[C@@H]1C` [Example 1226, 2-((3S)-8-((3S,5R)-4-Acryloyl-3,5-dimethylpiperazin-1-yl)-3-methoxy-6-oxo-10-(trifluoromethyl)-3,4-dihydro-2H,6H-[1,4]thiazepino[2,3,4-ij]quinazolin-11-yl)-5-fluorobenzonitrile]: the “CAF (% after 1 hour)” value was 81%.

In the case of `C=CC(=O)N1[C@H](C)CN(c2nc(=O)n3c4c(c(-c5ccc(F)cc5F)c(C(F)(F)F)cc24)SCCC3)C[C@@H]1C` [Example 1227, 8-((3S,5R)-4-acryloyl-3,5-dimethylpiperazin-1-yl)-11-(2,4-difluorophenyl)-10-(trifluoromethyl)-3,4-dihydro-2H,6H-[1,4]thiazepino[2,3,4-ij]quinazolin-6-one], the “CAF (% after 1 hour)” value stood at 93%. With `[2H]C([2H])=C([2H])C(=O)N1[C@H](C)CN(c2nc(=O)n3c4c(c(-c5ccc(F)cc5)c(C(F)(F)F)cc24)SC[C@@H](OC)C3)C[C@@H]1C` [Example 1228, (S)-8-((3S,5R)-4-(acryloyl-d3)-3,5-dimethylpiperazin-1-yl)-11-(4-fluorophenyl)-3-methoxy-10-(trifluoromethyl)-3,4-dihydro-2H,6H-[1,4]thiazepino[2,3,4-ij]quinazolin-6-one], the “CAF (% after 1 hour)” value stood at 96%.
